Laboratory results published in patent US11505815B2, “Compositions and methods related to non-templated enzymatic nucleic acid synthesis” (Nuclera Nucleics Ltd., priority 2017, dated 2022).

What was measured:
[1] = tested on: engineered terminal deoxynucleotidyl transferase; assay: Enzymatic incorporation of nucleoside 5′-triphosphates with amine-masking moieties onto a DNA primer (denaturing PAGE); format: biochemical; details: 10 minutes at 37° C., buffer containing cobalt chloride, DNA primer with 5′-fluorophore
Procedure: FIG. 11: Enzymatic incorporation of nucleoside 5′-triphosphates with amine-masking moieties. An engineered terminal deoxynucleotidyl transferase was incubated for 10 minutes at 37° C. in an appropriate buffer containing cobalt chloride and a DNA primer with a 5′-fluorophore as well as the following nucleoside 5′-triphosphates: (A) Lane 1: No extension control; Lane 2: N6-benzyl-dATP; Lane 3: N6-benzyl-rATP; Lane 4: N6-methyl-dATP; Lane 5: N6-methyl-rATP; (B) Lane 1: No extension control; Lane 2: 3′-O-acetyl-N4-benzoyl-dCTP; (C) Lane 1: No extension control; Lane 3: N6-benzoyl-dATP; Lane 4: N4-benzoyl-dCTP. Reactions were analyzed by standard denaturing polyacrylamide gel electrophoresis (TBE buffer) and imaged with a fluorescent scanner.

[2] = Deamination time course in sodium nitrite / sodium acetate pH 5.5, analysed by LC-MS; format: physicochemical; details: sodium nitrite (700 mM), pH 5.5 (1 M), room temperature; for Extent of deamination (conversion to oxidative deamination product): LC chromatograms at 260 nm

Row | Compound | Acceptance as substrate by terminal transferase enzyme in a DNA synthesis process [1] | Extent of deamination (conversion to oxidative deamination product) [2] | Deacetylation during incubation with nitrite solution ([2]; 48 hours)
1 | Nc1cc[nH]c(=O)n1 [cytosine, reference compound] |  | occur at an appreciable rate | 
2 | CC(C)=CCNc1ncnc2nc[nH]c12 [N6-dimethylallylamino purine] |  | notable absence of peaks corresponding to dA or dI | 

Second part, the molecule after the results:

Row | Acceptance as substrate by terminal transferase enzyme in a DNA synthesis process [1] | Extent of deamination (conversion to oxidative deamination product) [2] | Deacetylation during incubation with nitrite solution ([2]; 48 hours) | Compound
3 | accepted as a substrate |  |  | O=C(Nc1ccn([C@H]2C[C@H](O)[C@@H](COP(=O)(O)OP(=O)(O)OP(=O)(O)O)O2)c(=O)n1)c1ccccc1 [N4-benzoyl 2′-deoxycytidine triphosphate]
4 |  | occur at an appreciable rate |  | Nc1nc2nc[nH]c2c(=O)[nH]1 [guanine, reference compound]
5 |  | occur at an appreciable rate |  | Nc1ncnc2nc[nH]c12 [adenine, reference compound]
6 |  | no deamination product is detected | minor deacetylation | CC(=O)Nc1ncnc2c1ncn2[C@@H]1O[C@H](CO)[C@@H](O)[C@H]1O [N6-acetyl A, N6-acetyl adenosine]
